These results are taken from patent US5196568A, “Compounds useful in enzymatic resolution systems and their preparation” (priority 1988, dated 1993).

In brackets after ≈: the same amount, converted by molar mass. Counter-ions that a name gives are not always drawn. Bounds are passed on as bounds.

In data set [1] the test system is protease Prozyme 6 (Enzyme F). As to the kind of experiment: Homogeneous aqueous enzymatic resolution with Enzyme F. Format: biochemical, Aspergillus oryzae. Particulars: for % e.e.: naproxen acid product (R), 100 mg Prozyme 6, pH 7.0, 25 C. As for the experimental part: The enzymatic reaction mixtures were capped and briefly shaken until all the substrate had dissolved, and the enzyme had completely dissolved or dispersed. […] Evaporation of the ether left a white solid. The result is summarized below in Table 11 Rotations were measured at c=1 in CHCl3.
The enzymatic reaction mixtures were capped and briefly shaken until all the substrate had dissolved, and the enzyme had completely dissolved or dispersed. […] Evaporation of the ether left a white solid. Rotations were measured at c=1 in CHCl3.
The reaction was started by adding 100 mg of the protease (F) from the fungus Aspergillus oryzae (from Amano Enzyme Corporation, Prozyme 6, 60,000 units per mg of solid).
After 20 hours at room temperature, the solution was acidified to pH 2 and extracted with 3 volumes of diethyl ether. The aqueous phase was saved for subsequent workup. The ether phase was washed with two volumes of distilled water and then one volume of saturated sodium chloride, and then it was dried over MgSO4 and subsequently evaporated to dryness. The resolved ibuprofen product recovered was 930 mg of white powder, indicating 45% conversion of racemic ester to acid. The optical rotation was -0.580° (measured at c=1 in ethanol), indicating the R isomer of ibuprofen.
35 mg of protease Enzyme F, as the commercial preparation Prozyme 6, were added to the aqueous solution. The reaction flask was capped, and briefly shaken until all the enzyme had dissolved or dispersed. […] The resulting mixture was diluted with one volume of water and was extracted with diethyl ether (2 times 200 ml). The ether layers were combined and backwashed with water (2 times 200 ml), saturated NaCl solution (200 ml), and then dried over MgSO4.
In this control run, a 0.5M ester solution of (1) was prepared in 325 ml of 0.1M sodium phosphate buffer (pH 7.0). The reaction was started by adding 3 gm of the above enzyme (F). The pH was controlled at 7.0 with 8.22M sodium hydroxide. After 6.49 hours at 30° C., 6.63 ml of hydroxide were added, indicating 37.7% conversion. The reaction was allowed to continue overnight and, after 23.1 hours, a total of 7.2 ml of sodium hydroxide were added, indicating 40.9% conversion.

Data set [2] deals with Candida lipase, Sigma L-1754 (Enzyme H). As to the kind of experiment: Asymmetric hydrolysis in a multiphasic bioreactor with Enzyme H.
Description: The enzyme solution was recirculated from the shell side to the lumen side and back to the solution reservoir in an ultra-filtration mode. […] The procedure was completed in one hour.
The recirculation rate was 400 ml/min and the average pressure on the shell compartment was kept at 6.5 psi by adjusting a throttling valve at the shell side exit. On the lumen side 1 liter of 0.05M K2 PO4 was recirculated at a rate of 400 ml/min. The pH of the aqueous reservoir was kept at 7.0 by addition of 1M NaOH. The reactor was run continuously for 6.8 days.
The reaction progress and rate were monitored by following the caustic consumption.
Data set [3] can be described thus: Solubility of esters, absorbance of saturated solutions at 262 nm. The format is physicochemical. Particulars: for water solubility: in water; for Solubility: saturated solution, pH 7 (50 mM phosphate buffer), room temperature.
Data set [4] relates to Candida lipase, Genzyme (Enzyme G). Description: Asymmetric hydrolysis in a multiphasic bioreactor with Enzyme G.
Description: 3.0 grams of the lipase were dissolved in 500 mls of distilled water; this solution was recirculated in an ultrafiltration mode from the shell into the lumen and back to the reservoir for 30 minutes. The ultrafiltrate was then collected until the reservoir was empty, and methyl isobutyl ketone (MIBK) was then pumped into the shell and recirculated at 400-450 ml/min with a 5-7 psig shell pressure to remove any remaining enzyme solution from the shell.
A reactor was prepared as described in Example 6.2.2.5 (naproxen) using essentially the same mode of loading the enzyme, 3.0 grams of Candida lipase (Enzyme G, from Genzyme Corporation) were ultrafiltered from the shell into the lumen. […] The module was then drained.
No organic solvent was required as the substrate is already a water-immiscible liquid. Phosphate buffer was immediately pumped into the lumen and recirculated at 400-450 ml/min.
The reaction was monitored by following acid production based on hydroxide titration data. […] The aqueous buffer was replaced after 76 minutes and acidified to pH 2.0 with concentrated HCl in the presence of about 200 ml of chloroform.
The test system of data set [5] is Protease XXIII from Aspergillus oryzae (Enzyme A). As to the kind of experiment: Homogeneous aqueous enzymatic resolution (ester hydrolysis) with Enzyme A. Format: biochemical. Particulars: 100 mg enzyme A. The method, then:
No further purification was performed.

For data set [6] the test system is unchanged. As to the kind of experiment: Rates of hydrolysis of the two enantiomers, pH stat, Enzyme A. Format: biochemical. Particulars: for Rate (hydrolysis): 50 mM ester, pH 7.6. As for the experimental part:
15 ml of a solution containing one enantiomer of the ester at a concentration of 50 mM, and Na3 PO4 buffer at 50 mM and pH 7.6 was observed using a pH stat device. 0.1 ml of a 50 mg/ml solution of enzyme A, made up from
(§1) the commercially available preparation in 50 mM Na3 PO4 buffer at pH 7.6, were added. Rates of hydrolysis of both enantiomers of the ester compound were determined for the enzyme. The ratio of the rates of hydrolysis for the two enantiomers for the two enantiomers with respect to the enzyme indicate the stereospecificity of that enzyme's hydrolytic action on the racemic mixture of the ester. No evidence for the hydrolysis of the acetylthio ester portion of the substrate molecule was found.

Data set [7] has as its system Protease XIV from Streptomyces griseus (Enzyme I). Description: Rates of hydrolysis of the two enantiomers, pH stat, Enzyme I. Format: biochemical. Particulars: for Rate (hydrolysis): 50 mM ester, pH 7.6. The method, then: as §1, with “15 ml of a solution containing one enantiomer of the ester at a concentration of 50 mM, and Na3 PO4 buffer at 50 mM and pH 7.6 was observed using a pH stat device. 0.1 ml of a 50 mg/ml solution of protease enzyme I, made up from the commercially” for “the commercially”, “for the protease enzyme. The” for “for the enzyme. The”

For data set [8], the target named is T1, Protease XXVII "Nagarse" (Enzyme D) (Bacillus amyloliquefaciens, UniProt P00782).
T1 construct: purchased Protease XXVII
T1 sequence (P00782 108-382): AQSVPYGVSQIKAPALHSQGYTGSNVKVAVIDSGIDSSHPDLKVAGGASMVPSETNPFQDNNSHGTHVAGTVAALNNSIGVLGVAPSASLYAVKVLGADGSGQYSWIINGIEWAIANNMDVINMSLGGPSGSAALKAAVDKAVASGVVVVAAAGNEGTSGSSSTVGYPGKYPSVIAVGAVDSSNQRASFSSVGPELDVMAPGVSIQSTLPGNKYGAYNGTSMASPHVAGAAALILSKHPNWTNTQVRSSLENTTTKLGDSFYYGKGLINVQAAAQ
Description: Rates of hydrolysis of the two enantiomers, pH stat, Enzyme D. Particulars: for Rate (hydrolysis): 50 mM ester, pH 7.6. Format: biochemical. As for the experimental part: as §1, with “15 ml of a solution containing one enantiomer of the ester at a concentration of 50 mM, and Na3 PO4 buffer at 50 mM and pH 7.6 was observed using a pH stat device. 0.1 ml of a 50 mg/ml solution of enzyme D, made up from the commercially” for “the commercially”, “of the thioacetyl ester portion” for “of the acetylthio ester portion”

Data set [9] has as its target T2, Protease XXIV bacterial protease (Enzyme J) (Bacillus licheniformis, UniProt P00780).
T2 sequence (P00780 106-379): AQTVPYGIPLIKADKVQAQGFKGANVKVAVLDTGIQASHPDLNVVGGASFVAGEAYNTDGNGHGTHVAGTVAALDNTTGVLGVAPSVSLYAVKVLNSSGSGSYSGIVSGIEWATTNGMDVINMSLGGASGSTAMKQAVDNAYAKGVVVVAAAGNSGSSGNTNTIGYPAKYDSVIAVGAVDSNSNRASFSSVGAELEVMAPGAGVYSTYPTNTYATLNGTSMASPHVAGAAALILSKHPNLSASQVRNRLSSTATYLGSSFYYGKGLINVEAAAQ
As to the kind of experiment: Rates of hydrolysis of the two enantiomers, pH stat, Enzyme J. Format: biochemical. Particulars: for Rate (hydrolysis): 50 mM ester, pH 7.6. As for the experimental part: as §1, with “15 ml of a solution containing one enantiomer of the ester at a concentration of 50 mM, and Na3 PO4 buffer at 50 mM and pH 7.6 was observed using a pH stat device. 0.1 ml of a 50 mg/ml solution of Enzyme J, made up from the commercially” for “the commercially”

The target of data set [10] is T3, Protease VIII "Subtilopeptidase A" (Enzyme B) (Bacillus licheniformis, UniProt P00780).
T3 sequence (P00780 106-379): T2 sequence (P00780 106-379)
Description: Rates of hydrolysis of the two enantiomers, pH stat, Enzyme B. Format: biochemical. Particulars: for Rate (hydrolysis): 50 mM ester, 50 mM Na3PO4 buffer pH 7.6. The method, then: as §1, with “15 ml of a solution containing one enantiomer of the ester at a concentration of 50 mM, and Na3 PO4 buffer at 50 mM and pH 7.6 was observed using a pH stat device. 0.1 ml of a 50 mg/ml solution of enzyme B, made up from the commercially” for “the commercially”

The compound `CC(Oc1ccc(Cl)cc1)C(=O)OCS(=O)(=O)O` (centres unmarked) [Compound 17, Sodium Salt of the Sulfomethyl Ester of 2-(4-Chlorophenoxy)propanoic Acid] returned a reaction completion in data set [1] (35 mg Prozyme 6, 10 mmol ester in 100 ml 0.2M sodium phosphate pH 7.0, 30 C, 1 hour) of 22.5%.

Compound `CCCCCCCCOC(=O)C(C)Cl` (centres unmarked) [Compound 20, Octyl Ester of 2-Chloropropanoic Acid] registered an initial ester hydrolyzed in data set [2] (at termination, 6.8 days) of 41%. Moreover, the “rate of ester hydrolysis” value in [2] (at the beginning of the experiment, pH 7.0, 30 grams lipase) is 186 µmol/min. Besides, the “rate of ester hydrolysis” value in data set [2] (at the end (6.8 days)) stood at 25 µmol/min. For the same compound, in data set [3], the water solubility entry is listed as “approximately 1.2 mM” and the Solubility was determined as 1.2 mM (≈ 265 µg/mL).

For the compound `COC(=O)C(C)c1ccc2cc(OC)ccc2c1` (racemic) [Compound 18, Methyl Ester of 2-(6-Methoxy-2-naphthyl)propanoic Acid], the “average rate (hydrolysis)” value in data set [4] (first 45 minutes, 0.75M ester in MIBK, pH 8.50, 3.0 grams lipase) worked out at 35 µmol/h.

Consider `CC(C)Cc1ccc(C(C)C(=O)OCC[N+](C)(C)C)cc1` (centres unmarked) [Compound 10, Iodide Salt of 2-(N,N,N-Trimethylammonium)ethyl Ester of 2-(4-Isobutylphenyl)propanoic Acid], for which the “% e.e.” value in data set [5] (acid product (R), pH 7.0, 20 hours, 20-22 C) is listed as over 99%. The compound also showed a Solubility in data set [3] of 2180 mM.

With `COc1ccc2cc(C(C)C(=O)OCCC[N+](C)(C)C)ccc2c1` (centres unmarked) [Compound 12, Methyl Sulfate Salt of 3-(N,N,N-Trimethylammonium)propyl Ester of 2-(6-Methoxy-2-naphthyl)propanoic Acid], the “% CONVERSION” value in data set [1] (100 mg Prozyme 6, 10 mmol ester in 100 ml 0.2M phosphate buffer pH 7.0, 25 C, 18 hours) was 34.0%. Also, the “% e.e.” value in data set [1] (18 hours) is listed as 21.6%. This compound registered a Solubility in data set [3] of 1610 mM.

As to `CC(=O)SC[C@H](C)C(=O)OCS(=O)(=O)O` [Compound 15, Potassium Salt of the Sulfomethyl Ester of L-(+)-S-3-Acetylthio-2-methylpropanoic Acid], the “Rate Ratio L/D” value in [6] worked out at 2.3; in data set [7], 1.7; in data set [8] it was 1.1; in data set [9], 1.1; in data set [10], 2.1. The “Rate (hydrolysis)” value in data set [6] was found to be 12 umols/hr/mg; in [7], 105 umols/hr/mg; in data set [8], 29 umols/hr/mg; in [9] it was 65 umols/hr/mg; in data set [10] it was 135 umols/hr/mg.

`CC(=O)SC[C@@H](C)C(=O)OCS(=O)(=O)O` [Compound 14, Potassium Salt of the Sulfomethyl Ester of D-(-)-S-3-Acetylthio-2-methylpropanoic Acid]: the “Rate (hydrolysis)” value is reported as 5.3 umols/hr/mg in data set [6]; 63 umols/hr/mg in data set [7]; 27 umols/hr/mg in [8]; 61 umols/hr/mg in data set [9]; 65 umols/hr/mg in data set [10].

`COCCOC(=O)C(C)c1ccc(CC(C)C)cc1` (centres unmarked) [Methoxyethyl ester of ibuprofen, reference compound] had a Solubility in data set [3] of 0.18 mM (≈ 47.6 µg/mL).

Turning to `CC(C)Cc1ccc(C(C)C(=O)OCC(F)(F)F)cc1` (centres unmarked) [Compound 19, 2,2,2-Trifluoroethyl Ester of 2-(4-Isobutylphenyl)propanoic Acid], the average hydrolytic rate in data set [4] (first 60 minutes, neat liquid ester, pH 7.7, 3.0 grams lipase) amounted to 160 µmol/min. Also, the conversion to acid entry in data set [4] (over the next 76 hours) is given as “about 9.8%”. The compound further registered an average hydrolysis rate in [4] (over the next 76 hours, by titrimetry) of 21 µmol/min. In data set [3], the water solubility result is given as “roughly 0.4 mM” and the Solubility is recorded as 0.4 mM (≈ 115 µg/mL).

Consider `COc1ccc2cc(C(C)C(=O)OCS(=O)(=O)O)ccc2c1` (centres unmarked) [Compound 9, Sodium Salt of Sulfomethyl Ester of 2-(6-Methoxy-2-naphthyl)propanoic Acid], for which the “conversion (enzymatic hydrolysis)” value in data set [5] (2.0 gm ester in 400 ml 50 mM sodium phosphate pH 7.5, 25 degrees, 16 hours) came out at 18%. For the same compound, in [5] (pH 7.5, 25 degrees, 16 hours), the “enantiomeric excess of R isomer of naproxen (acid product)” value is reported as 61.2% and the “enantiomeric excess of S isomer of Naproxen (from unconverted ester hydrolysed at pH 12)” value is reported as 45.5%.

In data set [3], `CC(C)Cc1ccc(C(C)C(=O)OCCN(C)C)cc1` (centres unmarked) [2-(N,N-dimethylamino)ethyl ester of ibuprofen, reference compound] showed a Solubility of 10 mM (≈ 2770 µg/mL).

For `COc1ccc2cc(C(C)C(=O)OCC[N+](C)(C)C)ccc2c1` (centres unmarked) [Compound 11, Methyl Sulfate Salt of 2-(N,N,N-Trimethylammonium)ethyl Ester of 2-(6-Methoxy-2-naphthyl)propanoic Acid], the “% e.e.” value in [1] (18 hours) was determined as 34.0%.

Usually Solubility stands for how much of the substance goes into solution per volume. Read a low Solubility as a poorly soluble substance.
